We go through one molecule from ChEMBL document CHEMBL5634121, “Discovery of novel G9a/GLP covalent inhibitors for the treatment of triple-negative breast cancer” (Eur J Med Chem, 2023).

Data set [1] concerns MDA-MB-231. The data set is described as follows: Induction of apoptosis in human MDA-MB-231 cells assessed as early apoptotic cells at 5 uM incubated for 72 hrs by Annexin V and PI staining based flow cytometry analysis (reference value: 0.92 %). Type of data set: functional. A general note: Flow cytometry measures light scatter and fluorescence of single cells or particles in a stream.

Data set [2] can be described thus: Cmax in ICR mouse at 2 mg/kg, iv measured upto 12 hrs by LC-MS/MS analysis. The conditions noted are these: in vivo. Type of data set: ADME, organism-based.
Data set [3] can be described thus: Tmax in ICR mouse at 2 mg/kg, iv measured upto 12 hrs by LC-MS/MS analysis. Type of data set: ADME, organism-based. To be noted: in vivo.
Data set [4] deals with MDA-MB-231. Put plainly: Induction of apoptosis in human MDA-MB-231 cells assessed as necrotic cells at 10 uM incubated for 72 hrs by Annexin V and PI staining based flow cytometry analysis (reference value: 0.32 %). Type of data set: functional.
The target of data set [5] is Histone-lysine N-methyltransferase EHMT1/EHMT2 (Homo sapiens) (UniProt Q9H9B1+Q96KQ7). The data set is described as follows: Inhibition of G9a/GLP in human MDA-MB-231 cells assessed as reduction in H3K9 dimethylation incubated for 3 days by Western blotting analysis. Format: cell-based. The conditions noted are these: dose 2.5-20 µM, time 3.0 day. A general note: Immunoblotting shows a protein as a band on a membrane.

For data set [6], the system named is MDA-MB-231. The data set is described as follows: Induction of apoptosis in human MDA-MB-231 cells assessed as necrotic cells at 5 uM incubated for 72 hrs by Annexin V and PI staining based flow cytometry analysis (reference value: 0.32 %). Format: functional.
The nature of data set [7]: Mean residence time in ICR mouse at 2 mg/kg, iv measured upto 12 hrs by LC-MS/MS analysis. Format: ADME, organism-based. To be noted: in vivo.
The test system of the next data set is 4T1. The data set is described as follows: Antiproliferative activity against mouse 4T1 cells incubated for 3 to 5 days by MTT assay. Format: functional, cell-based. To be noted: Mus musculus, 4T1; read-out: IC50. A general note: Formazan colour is commonly taken as a measure of viable cells.
For data set [8], the system named is MDA-MB-231. Put plainly: Antiproliferative activity against human MDA-MB-231 cells incubated for 3 to 5 days by MTT assay. Type of data set: functional, cell-based. To be noted: time 3-5 day.
In data set [9] the target is T1, Histone-lysine N-methyltransferase EHMT1 (Homo sapiens, UniProt Q9H9B1).
T1 sequence (Q9H9B1 whole entry): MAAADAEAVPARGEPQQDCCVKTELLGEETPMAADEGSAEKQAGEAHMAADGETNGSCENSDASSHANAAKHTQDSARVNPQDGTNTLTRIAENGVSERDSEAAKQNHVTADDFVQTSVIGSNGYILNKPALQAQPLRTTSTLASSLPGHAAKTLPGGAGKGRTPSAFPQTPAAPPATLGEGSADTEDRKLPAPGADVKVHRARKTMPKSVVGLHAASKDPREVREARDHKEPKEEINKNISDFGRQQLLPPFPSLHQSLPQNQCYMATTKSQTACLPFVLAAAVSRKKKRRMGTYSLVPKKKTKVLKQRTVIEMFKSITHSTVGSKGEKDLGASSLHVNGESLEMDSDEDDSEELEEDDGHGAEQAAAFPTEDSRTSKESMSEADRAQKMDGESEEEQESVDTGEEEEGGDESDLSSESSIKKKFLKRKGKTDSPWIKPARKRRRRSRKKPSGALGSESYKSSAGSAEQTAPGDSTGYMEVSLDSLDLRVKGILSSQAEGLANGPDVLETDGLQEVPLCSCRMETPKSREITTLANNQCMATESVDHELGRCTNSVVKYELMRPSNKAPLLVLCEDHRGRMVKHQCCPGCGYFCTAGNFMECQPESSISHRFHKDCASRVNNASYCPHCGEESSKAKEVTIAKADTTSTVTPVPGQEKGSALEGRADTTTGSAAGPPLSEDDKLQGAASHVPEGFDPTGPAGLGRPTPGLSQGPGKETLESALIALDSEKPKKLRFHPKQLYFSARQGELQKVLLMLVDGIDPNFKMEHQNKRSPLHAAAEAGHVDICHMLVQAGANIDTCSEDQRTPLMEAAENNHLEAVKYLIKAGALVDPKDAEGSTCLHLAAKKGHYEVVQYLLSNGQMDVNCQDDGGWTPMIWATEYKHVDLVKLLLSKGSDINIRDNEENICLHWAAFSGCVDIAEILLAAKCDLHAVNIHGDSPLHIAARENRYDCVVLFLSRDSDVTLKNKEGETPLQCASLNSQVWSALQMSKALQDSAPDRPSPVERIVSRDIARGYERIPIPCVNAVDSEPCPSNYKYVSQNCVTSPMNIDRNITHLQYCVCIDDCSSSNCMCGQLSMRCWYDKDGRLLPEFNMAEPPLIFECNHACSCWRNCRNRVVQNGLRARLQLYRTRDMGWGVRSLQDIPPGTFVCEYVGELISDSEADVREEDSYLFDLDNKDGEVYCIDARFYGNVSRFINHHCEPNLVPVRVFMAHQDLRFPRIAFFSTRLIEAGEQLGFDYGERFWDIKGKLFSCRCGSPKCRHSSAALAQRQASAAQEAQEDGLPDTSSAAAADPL
The data set is described as follows: Inhibition of GLP (unknown origin).

Histone-lysine N-methyltransferase EHMT1/EHMT2 (Homo sapiens), sequence (Q96KQ7 whole entry, looked up, one chain of several): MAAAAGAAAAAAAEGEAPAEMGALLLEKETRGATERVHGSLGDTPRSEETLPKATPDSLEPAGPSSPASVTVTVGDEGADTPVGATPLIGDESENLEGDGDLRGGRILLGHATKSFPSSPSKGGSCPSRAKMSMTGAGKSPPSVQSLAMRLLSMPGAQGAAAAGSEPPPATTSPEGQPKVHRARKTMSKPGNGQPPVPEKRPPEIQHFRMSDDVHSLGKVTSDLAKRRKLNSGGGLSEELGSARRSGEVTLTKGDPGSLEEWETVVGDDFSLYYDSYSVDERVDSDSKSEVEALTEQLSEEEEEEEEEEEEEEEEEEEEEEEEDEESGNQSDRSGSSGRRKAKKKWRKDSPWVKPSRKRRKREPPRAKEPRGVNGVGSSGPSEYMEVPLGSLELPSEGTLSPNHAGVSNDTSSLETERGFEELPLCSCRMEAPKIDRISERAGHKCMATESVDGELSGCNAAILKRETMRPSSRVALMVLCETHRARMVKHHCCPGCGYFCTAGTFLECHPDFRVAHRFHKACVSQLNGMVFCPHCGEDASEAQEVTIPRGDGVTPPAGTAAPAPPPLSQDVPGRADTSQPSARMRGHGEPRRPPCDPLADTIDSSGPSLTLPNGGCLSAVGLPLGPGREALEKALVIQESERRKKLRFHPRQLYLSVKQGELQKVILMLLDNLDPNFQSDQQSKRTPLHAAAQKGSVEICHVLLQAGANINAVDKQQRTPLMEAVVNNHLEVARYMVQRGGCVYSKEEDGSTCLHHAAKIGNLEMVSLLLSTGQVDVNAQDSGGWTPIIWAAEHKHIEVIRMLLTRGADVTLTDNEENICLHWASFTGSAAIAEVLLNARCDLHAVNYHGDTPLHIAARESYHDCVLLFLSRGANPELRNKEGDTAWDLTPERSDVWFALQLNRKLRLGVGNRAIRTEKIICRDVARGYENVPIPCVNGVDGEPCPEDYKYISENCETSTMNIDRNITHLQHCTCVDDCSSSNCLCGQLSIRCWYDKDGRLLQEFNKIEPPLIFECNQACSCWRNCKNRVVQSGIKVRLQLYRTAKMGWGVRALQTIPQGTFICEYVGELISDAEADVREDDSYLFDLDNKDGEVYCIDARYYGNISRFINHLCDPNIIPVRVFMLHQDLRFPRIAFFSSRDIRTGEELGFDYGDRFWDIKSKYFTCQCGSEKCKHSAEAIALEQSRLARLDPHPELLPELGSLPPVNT

Broadly, the Cmax is the maximum level reached in the sampled fluid or tissue. One may read the Tmax as the time at which the peak concentration occurs. Broadly, the MRT is a mean duration of stay, worked out from the concentration-time curve. As usually defined, the IC50 is the concentration at which inhibition is half-maximal. In the case of `C=CC(=O)Nc1cccc(-c2nc(NC3CCN(C)CC3)c3cc(OC)c(OC)cc3n2)c1`, the Activity in the data set with MDA-MB-231 [1] was 1.44%; in the data set on MDA-MB-231 [4] it was 1.28%; in the data set on MDA-MB-231 [6], 0.93%; in the data set with MDA-MB-231 [8], “Dose-Dependent Effect”. The highest level in data set [2] (Cmax) was 911 ng/mL. In addition, in data set [3], the Tmax is 0.42 h. Moreover, the inhibition result in data set [5] is “Dose-Dependent Effect”. The molecule also gave an MRT in data set [7] of 2.3 h. Besides, the results for the 50% inhibitory concentration (IC50) (in the data set with 4T1; in data set [9]) were 4.67 µM and 0.458 µM, respectively.
